Experimental data published in patent publication US5358951A, “Angiotensin II receptor blocking 2, 3, 6 substituted quinazolinones” (American Cyanamid Company, priority 1993, dated 1994).

Test system: vasopressor response of angiotensin II
Assay: AII Challenge: antagonism of angiotensin II vasopressor response;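 for Response Average Change: post-dose Angiotensin II-evoked rise in systolic blood pressure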
Type: in vivo
Conditions: for inhibition in vivo at 3 mg/kg / inhibition in vivo at 5 mg/kg / inhibition in vivo at 1 mg/kg: Rattus norvegicus; for inhibition in vivo at 3 mg/kg / inhibition in vivo at 1 mg/kg: iv; for inhibition in vivo at 5 mg/kg: po
Procedure, shortened: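 Conscious male SHR (16-20 weeks) with aortic and caval cannulae received angiotensin II at 0.05 and 0.1 ug/kg i.v. before and 30-300 min after compound dosing (i.v., i.p. or oral). Blockade is expressed as % of each rat's predose rise in systolic pressure.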

CCCCc1nc2ccc([C@@H]3C[C@H]4c5ccccc5CCN4O3)cc2c(=O)n1Cc1ccc(-c2ccccc2-c2nnn[nH]2)cc1 (relative stereo) [Example 63, Cis-2-Butyl-6-(1,5,6,10b-tetrahydro-2H-isoxazolo[3,2-a]isoquinolin-2-yl)-3-[[2'-(1H-tetrazol5-yl)[1,1'-biphenyl]-4-yl]methyl]-4(3H)-quinazolinone]
Response Average Change (3 mg/kg I.V., AII 0.05 mcg/kg IV, 30 min post dose): 10.5 mmHg | Response Average Change (3 mg/kg I.V., AII 0.05 mcg/kg IV, 90 min post dose): 10 mmHg | Response Average Change (3 mg/kg I.V., AII 0.05 mcg/kg IV, 120 min post dose): 10 mmHg | Response Average Change (3 mg/kg I.V., AII 0.05 mcg/kg IV, 180 min post dose): 17.5 mmHg | Response Average Change (3 mg/kg I.V., AII 0.05 mcg/kg IV, 240 min post dose): 12.5 mmHg | Response Average Change (3 mg/kg I.V., AII 0.05 mcg/kg IV, 300 min post dose): 23.5 mmHg | Response Average Change (3 mg/kg I.V., AII 0.1 mcg/kg IV, 30 min post dose): 10 mmHg | Response Average Change (3 mg/kg I.V., AII 0.1 mcg/kg IV, 60 min post dose): 15 mmHg | Response Average Change (3 mg/kg I.V., AII 0.1 mcg/kg IV, 90 min post dose): 17.5 mmHg | Response Average Change (3 mg/kg I.V., AII 0.1 mcg/kg IV, 120 min post dose): 17.5 mmHg | Response Average Change (3 mg/kg I.V., AII 0.1 mcg/kg IV, 180 min post dose): 22.5 mmHg | Response Average Change (3 mg/kg I.V., AII 0.1 mcg/kg IV, 240 min post dose): 23 mmHg | Response Average Change (3 mg/kg I.V., AII 0.1 mcg/kg IV, 300 min post dose): 25 mmHg | Response Average Change (3 mg/kg I.V., AII 0.5 mcg/kg IV, 60 min post dose): 10 mmHg | Response Average Change (5 mg/kg P.O., AII 0.05 mcg/kg IV, 30 min post dose): 22.5 mmHg | Response Average Change (5 mg/kg P.O., AII 0.05 mcg/kg IV, 60 min post dose): 30 mmHg | Response Average Change (5 mg/kg P.O., AII 0.05 mcg/kg IV, 90 min post dose): 20 mmHg | Response Average Change (5 mg/kg P.O., AII 0.05 mcg/kg IV, 120 min post dose): 16.5 mmHg | Response Average Change (5 mg/kg P.O., AII 0.05 mcg/kg IV, 180 min post dose): 20 mmHg | Response Average Change (5 mg/kg P.O., AII 0.1 mcg/kg IV, 30 min post dose): 35 mmHg | Response Average Change (5 mg/kg P.O., AII 0.1 mcg/kg IV, 60 min post dose): 42.5 mmHg | Response Average Change (5 mg/kg P.O., AII 0.1 mcg/kg IV, 90 min post dose): 34 mmHg | Response Average Change (5 mg/kg P.O., AII 0.1 mcg/kg IV, 120 min post dose): 32.5 mmHg | Response Average Change (5 mg/kg P.O., AII 0.1 mcg/kg IV, 180 min post dose): 24 mmHg | inhibition in vivo at 3 mg/kg (0.5 h, 3 mg/kg I.V., AII 0.05 mcg/kg IV, 30 min post dose): 70% | inhibition in vivo at 3 mg/kg (0.5 h, 3 mg/kg I.V., AII 0.1 mcg/kg IV, 30 min post dose): 73% | inhibition in vivo at 3 mg/kg (1 h, 3 mg/kg I.V., AII 0.1 mcg/kg IV, 60 min post dose): 60% | inhibition in vivo at 3 mg/kg (1 h, 3 mg/kg I.V., AII 0.5 mcg/kg IV, 60 min post dose): 71% | inhibition in vivo at 3 mg/kg (2 h, 3 mg/kg I.V., AII 0.05 mcg/kg IV, 120 min post dose): 71% | inhibition in vivo at 3 mg/kg (2 h, 3 mg/kg I.V., AII 0.1 mcg/kg IV, 120 min post dose): 53% | inhibition in vivo at 3 mg/kg (3 h, 3 mg/kg I.V., AII 0.05 mcg/kg IV, 180 min post dose): 50% | inhibition in vivo at 3 mg/kg (3 h, 3 mg/kg I.V., AII 0.1 mcg/kg IV, 180 min post dose): 40% | inhibition in vivo at 3 mg/kg (4 h, 3 mg/kg I.V., AII 0.05 mcg/kg IV, 240 min post dose): 64% | inhibition in vivo at 3 mg/kg (4 h, 3 mg/kg I.V., AII 0.1 mcg/kg IV, 240 min post dose): 39% | inhibition in vivo at 3 mg/kg (5 h, 3 mg/kg I.V., AII 0.05 mcg/kg IV, 300 min post dose): 33% | inhibition in vivo at 3 mg/kg (5 h, 3 mg/kg I.V., AII 0.1 mcg/kg IV, 300 min post dose): 33% | inhibition in vivo at 3 mg/kg ([…], 3 mg/kg I.V., AII 0.05 mcg/kg IV, 90 min post dose): 71% | inhibition in vivo at 3 mg/kg ([…], 3 mg/kg I.V., AII 0.1 mcg/kg IV, 90 min post dose): 53% | inhibition in vivo at 5 mg/kg (0.5 h, 5 mg/kg P.O., AII 0.05 mcg/kg IV, 30 min post dose): 49% | inhibition in vivo at 5 mg/kg (0.5 h, 5 mg/kg P.O., AII 0.1 mcg/kg IV, 30 min post dose): 18% | inhibition in vivo at 5 mg/kg (1 h, 5 mg/kg P.O., AII 0.05 mcg/kg IV, 60 min post dose): 32% | inhibition in vivo at 5 mg/kg (1 h, 5 mg/kg P.O., AII 0.1 mcg/kg IV, 60 min post dose): 0% | inhibition in vivo at 5 mg/kg (2 h, 5 mg/kg P.O., AII 0.05 mcg/kg IV, 120 min post dose): 63% | inhibition in vivo at 5 mg/kg (2 h, 5 mg/kg P.O., AII 0.1 mcg/kg IV, 120 min post dose): 24% | inhibition in vivo at 5 mg/kg (3 h, 5 mg/kg P.O., AII 0.05 mcg/kg IV, 180 min post dose): 55% | inhibition in vivo at 5 mg/kg (3 h, 5 mg/kg P.O., AII 0.1 mcg/kg IV, 180 min post dose): 44% | inhibition in vivo at 5 mg/kg ([…], 5 mg/kg P.O., AII 0.05 mcg/kg IV, 90 min post dose): 55% | inhibition in vivo at 5 mg/kg ([…], 5 mg/kg P.O., AII 0.1 mcg/kg IV, 90 min post dose): 20%

CCCCc1nc2ccc([C@@]3(CC)C[C@@H]4CCCN4O3)cc2c(=O)n1Cc1ccc(-c2ccccc2-c2nnn[nH]2)cc1 (relative stereo) [Example 71, Cis-2-butyl-6-(2-ethylhexahydropyrrolo[1,2b]isoxazol-2-yl)-3-[[2'-[1-(1H-tetrazol-5-yl)][1,1'-biphenyl]-4-yl]methyl]-4(3H)-quinazolinone]
Response Average Change (1 mg/kg i.v., AII 0.05 mcg/kg IV, 30 min post dose): 20 mmHg | Response Average Change (1 mg/kg i.v., AII 0.05 mcg/kg IV, 60 min post dose): 5 mmHg | Response Average Change (1 mg/kg i.v., AII 0.05 mcg/kg IV, 90 min post dose): 30 mmHg | Response Average Change (1 mg/kg i.v., AII 0.05 mcg/kg IV, 120 min post dose): 15 mmHg | Response Average Change (1 mg/kg i.v., AII 0.05 mcg/kg IV, 180 min post dose): 15 mmHg | Response Average Change (1 mg/kg i.v., AII 0.05 mcg/kg IV, 240 min post dose): 15 mmHg | Response Average Change (1 mg/kg i.v., AII 0.05 mcg/kg IV, 300 min post dose): 20 mmHg | Response Average Change (1 mg/kg i.v., AII 0.1 mcg/kg IV, 30 min post dose): 15 mmHg | Response Average Change (1 mg/kg i.v., AII 0.1 mcg/kg IV, 60 min post dose): 15 mmHg | Response Average Change (1 mg/kg i.v., AII 0.1 mcg/kg IV, 90 min post dose): 20 mmHg | Response Average Change (1 mg/kg i.v., AII 0.1 mcg/kg IV, 120 min post dose): 10 mmHg | Response Average Change (1 mg/kg i.v., AII 0.1 mcg/kg IV, 180 min post dose): 15 mmHg | Response Average Change (1 mg/kg i.v., AII 0.1 mcg/kg IV, 240 min post dose): 22.5 mmHg | Response Average Change (1 mg/kg i.v., AII 0.1 mcg/kg IV, 300 min post dose): 23.5 mmHg | inhibition in vivo at 1 mg/kg (0.5 h, 1 mg/kg i.v., AII 0.05 mcg/kg IV, 30 min post dose): 53% | inhibition in vivo at 1 mg/kg (0.5 h, 1 mg/kg i.v., AII 0.1 mcg/kg IV, 30 min post dose): 60% | inhibition in vivo at 1 mg/kg (1 h, 1 mg/kg i.v., AII 0.05 mcg/kg IV, 60 min post dose): 88% | inhibition in vivo at 1 mg/kg (1 h, 1 mg/kg i.v., AII 0.1 mcg/kg IV, 60 min post dose): 60% | inhibition in vivo at 1 mg/kg (2 h, 1 mg/kg i.v., AII 0.05 mcg/kg IV, 120 min post dose): 65% | inhibition in vivo at 1 mg/kg (2 h, 1 mg/kg i.v., AII 0.1 mcg/kg IV, 120 min post dose): 73% | inhibition in vivo at 1 mg/kg (3 h, 1 mg/kg i.v., AII 0.05 mcg/kg IV, 180 min post dose): 65% | inhibition in vivo at 1 mg/kg (3 h, 1 mg/kg i.v., AII 0.1 mcg/kg IV, 180 min post dose): 60% | inhibition in vivo at 1 mg/kg (4 h, 1 mg/kg i.v., AII 0.05 mcg/kg IV, 240 min post dose): 65% | inhibition in vivo at 1 mg/kg (4 h, 1 mg/kg i.v., AII 0.1 mcg/kg IV, 240 min post dose): 40% | inhibition in vivo at 1 mg/kg (5 h, 1 mg/kg i.v., AII 0.05 mcg/kg IV, 300 min post dose): 53% | inhibition in vivo at 1 mg/kg (5 h, 1 mg/kg i.v., AII 0.1 mcg/kg IV, 300 min post dose): 37% | inhibition in vivo at 1 mg/kg ([…], 1 mg/kg i.v., AII 0.05 mcg/kg IV, 90 min post dose): 29% | inhibition in vivo at 1 mg/kg ([…], 1 mg/kg i.v., AII 0.1 mcg/kg IV, 90 min post dose): 47%
